Ki, Kd and inhibition data for ten compounds are collected here from US20120165331A1, “Di/tri-aza-spiro-C9-C11alkanes” (priority 2010, published 2012).

The target in assay [1] is T1, human orexin 1 receptor (Homo sapiens, UniProt O43613).
T1 construct: expressed in transfected cells
T1 sequence (O43613 1-425): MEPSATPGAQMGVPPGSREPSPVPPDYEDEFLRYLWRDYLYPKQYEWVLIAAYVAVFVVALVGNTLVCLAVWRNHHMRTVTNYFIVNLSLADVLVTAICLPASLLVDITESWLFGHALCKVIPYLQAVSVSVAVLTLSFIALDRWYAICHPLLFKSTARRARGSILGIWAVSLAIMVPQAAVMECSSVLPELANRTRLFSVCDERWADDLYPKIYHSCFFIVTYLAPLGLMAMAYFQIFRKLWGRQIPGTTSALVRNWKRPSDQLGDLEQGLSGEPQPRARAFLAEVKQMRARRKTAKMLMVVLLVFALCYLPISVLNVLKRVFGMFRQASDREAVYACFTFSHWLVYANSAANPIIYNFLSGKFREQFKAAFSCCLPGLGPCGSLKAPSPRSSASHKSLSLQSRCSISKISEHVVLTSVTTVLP
Briefly: Calcium accumulation in cells (FLIPR), antagonism of orexin A, human orexin 1 receptor. Type of assay: cell-based. Conditions: for Ki: calcium accumulation, antagonism of orexin A, Cheng-Prusoff corrected, read-out: FLIPR hOx1R Ki.

For assay [2], the target named is T2, human orexin 2 receptor (Homo sapiens, UniProt O43614).
T2 construct: expressed in transfected cells
T2 sequence (O43614 1-444): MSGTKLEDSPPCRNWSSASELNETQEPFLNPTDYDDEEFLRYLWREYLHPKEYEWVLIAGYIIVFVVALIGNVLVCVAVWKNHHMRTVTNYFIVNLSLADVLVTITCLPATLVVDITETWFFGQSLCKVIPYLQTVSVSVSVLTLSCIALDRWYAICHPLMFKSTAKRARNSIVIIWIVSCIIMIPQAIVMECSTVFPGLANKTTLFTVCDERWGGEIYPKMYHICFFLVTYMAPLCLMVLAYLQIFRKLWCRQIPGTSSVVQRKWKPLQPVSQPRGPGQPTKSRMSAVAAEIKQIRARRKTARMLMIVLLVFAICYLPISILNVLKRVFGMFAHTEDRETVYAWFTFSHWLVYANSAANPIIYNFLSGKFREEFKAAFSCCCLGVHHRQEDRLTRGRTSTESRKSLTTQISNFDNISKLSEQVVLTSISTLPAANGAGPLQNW
Description: Radioligand binding assay ([3H]-SB649868 competition), human orexin 2 receptor. As to conditions: radioligand [3H]-SB649868; read-out: Binding hOx2R Kd. How it is done: (§1) Radioligand Binding Assay
(§2) For crude cell membrane preparations, cells (CHO, Chinese hamster ovary or HEK, human embryonic kidney) expressing human orexin 1 or human orexin 2 receptors, were washed with HEPES (10 mM, pH 7.5), scraped off the culture plates with the same buffer, and centrifuged at 4° C. for 5 min at 2500×g. The cell pellet was either stored at −80° C. or used directly. Before the experiments, cell membranes were re-suspended in binding assay buffer (10 mM HEPES, 0.5% (w/v) bovine serum albumin, pH 7.5) by homogenisation with a Polytron homogeniser at 50 Hz for 20 s. Cell membranes were also used as made available by commercial providers.
(§3) Bound radioactivity was measured, and data were analysed with the program XLFIT or Graphpad Prism. Protein concentration was determined according to the Bradford/BioRad Protein Assay Kit.
(§4) In competition experiments, cell homogenates (150 μl) were incubated in assay buffer (10 mM HEPES, pH 7.5, 0.5% (w/v) bovine serum albumin, 5 mM MgCl2, 1 mMCaCl2, and tween 0.05%) for 1 h at room temperature with about 1 nM of the radioligand [^3H]-SB649868, 66 Ci/mmole, 50 μl), and with various concentrations of compounds of the invention (50 μl) in triplicates; non-specific binding was determined in the presence of almorexant (10 μM). Reactions were terminated by vacuum filtration, 3 washes of ice cold wash buffer (Tris-HCl pH 7.4/10 mM, with NaCl 154 mM). Competition data is expressed in Table 1 as Kd [μM].

Assay [3] addresses T2, human orexin 2 receptor. Description: Calcium accumulation in cells (FLIPR), antagonism of orexin A, human orexin 2 receptor. Type of assay: cell-based. As to conditions: calcium accumulation, antagonism of orexin A, Cheng-Prusoff corrected; read-out: FLIPR hOx2R Ki.
In assay [4] the target is T1, human orexin 1 receptor. Briefly: Radioligand binding assay ([3H]-SB649868 competition), human orexin 1 receptor. Conditions: radioligand [3H]-SB649868; read-out: Binding hOx1R Kd. As to the method:
as §1, §2, §3, §4

`COc1cccc(-c2cn(C)nc2CN2CCNC3(CCN(c4nc(C)cc(C)n4)CC3)C2=O)c1` [Example 1.33, 9-(4,6-Dimethyl-pyrimidin-2-yl)-4-((4-(3-methoxyphenyl)-1-methyl-1H-pyrazol-3-yl)methyl)-1,4,9-triazaspiro[5.5] undecan-5-one]: the Ki on human orexin 1 receptor [1] was determined as 1530 nM; on human orexin 2 receptor [3], 6 nM. Also, the Kd at human orexin 2 receptor [2] worked out at 42 nM; at human orexin 1 receptor [4], 1620 nM.
In the same order, the values of `O=C1CCC2(CCN(c3cnc4ccccc4n3)CC2)N1Cc1cccc2[nH]ccc12` [Example 8.1] are 78 nM, 2.1 nM, 32 nM and 148 nM.
The matching figures for `Cc1ccc(C)c(CN2C(=O)CCC23CCN(c2cnc4ccccc4n2)CC3)c1` [Example 8.5, 1-(2,5-Dimethylbenzyl)-8-(quinoxalin-2-yl)-1,8-diazaspiro[4.5]decan-2-one]: 100 nM, 7.6 nM, 77 nM and 81 nM.
In the same order, the values of `CCc1cc(C)nc(N2CCC3(CC2)OCCN(Cc2c[nH]c4ccccc24)C3=O)n1` [Example 2.23, 4-((1H-indol-3-yl)methyl)-9-(4-ethyl-6-methylpyrimidin-2-yl)-1-oxa-4,9-diazaspiro[5.5]undecan-5-one] are 582 nM, 37 nM, 68 nM and 1570 nM.
For `COCc1cccc(-c2ocnc2CN2CCNC3(CCN(c4nc(C)cc(C)n4)CC3)C2=O)c1` [Example 1.27, 9-(4,6-Dimethyl-pyrimidin-2-yl)-4-((5-(3-(methoxymethyl)phenyl)oxazol-4-yl)methyl)-1,4,9-triazaspiro[5.5] undecan-5-one], at human orexin 1 receptor [1] (measured at a concentration of 10 μM of compound, read-out: FLIPR hOx1R % inhibition), the inhibition at 10 µM was found to be 34%. Further, the Kd on human orexin 2 receptor [2] was 140 nM; on human orexin 1 receptor [4], 5140 nM. At human orexin 2 receptor [3], the Ki is 94 nM.
In the case of `COCCOc1cccc(-c2nn(C)nc2CN2CCNC3(CCN(c4nc(C)cc(C)n4)CC3)C2=O)c1` [Example 1.78, 9-(4,6-dimethyl-pyrimidin-2-yl)-4-((5-(3-(2-methoxyethoxy)phenyl)-2-methyl-2H-1,2,3-triazol-4-yl)methyl)-1,4,9-triazaspiro[5.5] undecan-5-one], the Ki was found to be 1870 nM on human orexin 1 receptor [1] and 9 nM at human orexin 2 receptor [3]. The figures for the Kd on human orexin 2 receptor [2] and on human orexin 1 receptor [4] were 28 nM and 709 nM, respectively.
For `Cc1ccnc(N2CCC3(CC2)OCCN(Cc2c[nH]c4ccccc24)C3=O)n1` [Example 2.8, 4-((1H-Indol-3-yl)methyl)-9-(4-methylpyrimidin-2-yl)-1-oxa-4,9-diazaspiro[5.5]undecan-5-one], the Ki amounted to 2460 nM at human orexin 1 receptor [1] and 105 nM at human orexin 2 receptor [3]. Also, the Kd on human orexin 2 receptor [2] was found to be 78 nM; on human orexin 1 receptor [4], 5610 nM.
Regarding `COc1cccc(-c2ocnc2CN2CCNC3(CCN(c4nc(C)cc(OC)n4)CC3)C2=O)c1` [Example 1.13, 9-(4-Methoxy-6-methylpyrimidin-2-yl)-4-((5-(3-methoxyphenyl)oxazol-4-yl)methyl)-1,4,9-triazaspiro[5.5] undecan-5-one], the Ki amounted to 37 nM at human orexin 1 receptor [1] and 3 nM on human orexin 2 receptor [3]. Moreover, the Kd on human orexin 2 receptor [2] was 200 nM; at human orexin 1 receptor [4] it was 82 nM.
In the same order, the values of `COc1cc(C)nc(N2CCC3(CC2)OCCN(Cc2c[nH]c4ncccc24)C3=O)n1` [Example 2.19, 4-((1H-Pyrrolo[2,3-b]pyridin-3-yl)methyl)-9-(4-methoxy-6-methylpyrimidin-2-yl)-1-oxa-4,9-diazaspiro[5.5]undecan-5-one] are 1490 nM, 35 nM, 184 nM and 3520 nM.
Turning to `Cc1cc(C)nc(N2CCC3(CC2)NCCN(Cc2nn(C)cc2-c2cccc(C(F)F)c2)C3=O)n1` [Example 1.71, 4-((4-(3-(difluoromethyl)phenyl)-1-methyl-1H-pyrazol-3-yl)methyl)-9-(4,6-dimethylpyrimidin-2-yl)-1,4,9-triazaspiro[5.5] undecan-5-one], the Ki at human orexin 1 receptor [1] was 2060 nM; on human orexin 2 receptor [3], 30 nM. The values for the Kd on human orexin 2 receptor [2] and on human orexin 1 receptor [4] were 227 nM and 1700 nM, respectively.
